# Reference: patent US20170008888A1 (KYORIN PHARMACEUTICAL CO., LTD., priority 2014, published 2017)
# What was measured:
# AurA = target: T1, AurA (Homo sapiens, UniProt O14965); experiment: Probe-based (AX9989) kinase profiling in Jurkat lysate: AurA; format: binding; details: read-out: AurA Inhibition % at indicated screening concentration; for inhibition at 1 µM: screening concentration 1 μM
# T1 construct: screened for activity against several kinases in Jurkat cells; endogenous in cells; host or cells: Jurkat cell lysate
# T1 sequence (O14965 1-403): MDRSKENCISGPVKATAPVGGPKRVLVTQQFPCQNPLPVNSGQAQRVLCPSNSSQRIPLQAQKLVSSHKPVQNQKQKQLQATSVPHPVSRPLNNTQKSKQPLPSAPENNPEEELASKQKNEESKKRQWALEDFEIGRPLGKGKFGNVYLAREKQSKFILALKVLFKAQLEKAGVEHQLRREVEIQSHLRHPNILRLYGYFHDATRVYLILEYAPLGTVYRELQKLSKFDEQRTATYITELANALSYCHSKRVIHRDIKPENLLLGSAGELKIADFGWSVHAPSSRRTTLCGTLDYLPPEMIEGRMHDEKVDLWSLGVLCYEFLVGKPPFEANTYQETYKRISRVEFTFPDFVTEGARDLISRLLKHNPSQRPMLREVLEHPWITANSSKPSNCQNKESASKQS
# Procedure, shortened: (§1)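 Read-out: LC/MS intensity of desthiobiotinylated kinase active-site peptides, percent inhibition normalized to no-compound lysate. Jurkat lysate with 20 mM MnCl2 received compound for 15 min at room temperature, then 5 μM AX9989 probe; duplicates.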
# JAK1 = target: T2, JAK1 (Homo sapiens, UniProt P23458); experiment: Probe-based (AX9989) kinase profiling in Jurkat lysate: JAK1; format: binding; details: read-out: JAK1 Inhibition % at indicated screening concentration; for inhibition at 1 µM: screening concentration 1 μM
# T2 construct: screened for activity against several kinases in Jurkat cells; endogenous in cells; host or cells: Jurkat cell lysate
# Procedure, shortened: as §1
# AurB or AurC = experiment: Probe-based (AX9989) kinase profiling in Jurkat lysate: AurB or AurC; format: binding
# Procedure, shortened: as §1
# ERK5 = target: T3, ERK5 (Homo sapiens, UniProt Q13164); experiment: Probe-based (AX9989 acyl phosphate ATP probe) kinase profiling in Jurkat lysate: ERK5; format: binding; details: for IC50: calculated from percent inhibition and screening concentration, Jurkat lysate, AX9989 probe; for inhibition at 1 µM: screening concentration 1 μM
# T3 construct: screened for activity against several kinases in Jurkat cells; endogenous in cells; host or cells: Jurkat cell lysate
# Procedure, shortened: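 ERK5 IC50 values came from percent inhibition at the screening concentration, measured as loss of LC/MS signal of probe-labelled active-site peptides. Compound was added for 15 min at room temperature to Jurkat lysate (5 mg/ml, 20 mM MnCl2) before labelling with AX9989 ATP acyl phosphate probe at 5 μM.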
# ABL or ARG = experiment: Probe-based (AX9989) kinase profiling in Jurkat lysate: ABL or ARG; format: binding
# Procedure, shortened: as §1
# human PBMCs = experiment: Human PBMC TNF-α response to endotoxin (ELISA); format: cell-based; details: 0.1 μg/ml LPS 16 h, read-out: EC50 for the inhibition of the human PBMC TNF-α response to endotoxin, ave. ± S.D.
# Procedure, shortened: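 PBMCs at 2e6 cells/ml in RPMI 1640 with 10% charcoal-dextran-treated FBS were pre-treated 1 h at 37 °C with compound (4-point 1:5 dilution from 10 μM). Stimulation with 0.1 μg/ml E. coli 0111:B4 LPS for 16 h; TNF-α measured by ELISA (A450) in 25-fold diluted supernatant.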
# TAO2 = target: T4, TAO2 (Homo sapiens, UniProt Q9UL54); experiment: Probe-based (AX9989) kinase profiling in Jurkat lysate: TAO2; format: binding; details: read-out: TAO2 Inhibition % at indicated screening concentration; for inhibition at 1 µM: screening concentration 1 μM
# T4 construct: screened for activity against several kinases in Jurkat cells; endogenous in cells; host or cells: Jurkat cell lysate
# T4 sequence (Q9UL54 1-1235): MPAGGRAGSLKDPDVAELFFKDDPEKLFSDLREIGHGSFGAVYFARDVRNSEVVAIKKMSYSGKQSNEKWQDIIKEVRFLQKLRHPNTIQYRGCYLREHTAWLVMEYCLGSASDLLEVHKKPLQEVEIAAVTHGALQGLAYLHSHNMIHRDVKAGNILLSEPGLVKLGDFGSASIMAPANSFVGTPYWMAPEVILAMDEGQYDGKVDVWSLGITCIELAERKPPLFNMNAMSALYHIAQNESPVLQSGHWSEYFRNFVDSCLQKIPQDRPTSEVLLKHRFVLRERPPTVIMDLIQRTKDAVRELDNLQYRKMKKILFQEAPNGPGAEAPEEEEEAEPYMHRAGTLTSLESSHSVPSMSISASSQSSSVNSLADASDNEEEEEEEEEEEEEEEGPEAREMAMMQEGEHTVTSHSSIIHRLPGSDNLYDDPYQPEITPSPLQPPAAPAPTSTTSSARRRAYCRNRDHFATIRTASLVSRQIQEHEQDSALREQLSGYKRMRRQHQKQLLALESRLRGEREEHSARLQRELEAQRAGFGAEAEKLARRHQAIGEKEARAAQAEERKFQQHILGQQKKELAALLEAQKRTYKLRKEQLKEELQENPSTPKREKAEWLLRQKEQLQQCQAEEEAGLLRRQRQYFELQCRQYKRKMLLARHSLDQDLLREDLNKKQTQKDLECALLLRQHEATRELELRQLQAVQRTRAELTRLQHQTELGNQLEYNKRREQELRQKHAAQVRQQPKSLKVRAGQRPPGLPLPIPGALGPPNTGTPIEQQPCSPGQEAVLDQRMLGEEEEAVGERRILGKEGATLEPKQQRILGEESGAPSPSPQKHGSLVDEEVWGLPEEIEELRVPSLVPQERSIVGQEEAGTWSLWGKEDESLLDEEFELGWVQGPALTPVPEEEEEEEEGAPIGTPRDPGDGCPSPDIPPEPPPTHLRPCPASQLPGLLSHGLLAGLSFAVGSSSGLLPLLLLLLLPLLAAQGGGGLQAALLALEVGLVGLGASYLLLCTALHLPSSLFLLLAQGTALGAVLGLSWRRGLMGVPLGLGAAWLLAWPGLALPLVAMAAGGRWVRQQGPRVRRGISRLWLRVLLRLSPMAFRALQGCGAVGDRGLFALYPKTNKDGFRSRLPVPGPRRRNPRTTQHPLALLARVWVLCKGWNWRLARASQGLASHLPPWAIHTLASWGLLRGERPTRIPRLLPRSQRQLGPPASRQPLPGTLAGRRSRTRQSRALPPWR
# Procedure, shortened: as §1
# AMPKa1 or AMPKa2 = experiment: Probe-based (AX9989) kinase profiling in Jurkat lysate: AMPKa1 or AMPKa2; format: binding
# Procedure, shortened: as §1
# ACK = target: T5, ACK (Homo sapiens, UniProt Q07912); experiment: Probe-based (AX9989) kinase profiling in Jurkat lysate: ACK; format: binding; details: read-out: ACK Inhibition % at indicated screening concentration; for inhibition at 1 µM: screening concentration 1 μM
# T5 construct: screened for activity against several kinases in Jurkat cells; endogenous in cells; host or cells: Jurkat cell lysate
# Procedure, shortened: as §1
# [1] = read-out: ERK5 Inhibition % at indicated screening concentration
# T3 sequence (Q13164 whole entry): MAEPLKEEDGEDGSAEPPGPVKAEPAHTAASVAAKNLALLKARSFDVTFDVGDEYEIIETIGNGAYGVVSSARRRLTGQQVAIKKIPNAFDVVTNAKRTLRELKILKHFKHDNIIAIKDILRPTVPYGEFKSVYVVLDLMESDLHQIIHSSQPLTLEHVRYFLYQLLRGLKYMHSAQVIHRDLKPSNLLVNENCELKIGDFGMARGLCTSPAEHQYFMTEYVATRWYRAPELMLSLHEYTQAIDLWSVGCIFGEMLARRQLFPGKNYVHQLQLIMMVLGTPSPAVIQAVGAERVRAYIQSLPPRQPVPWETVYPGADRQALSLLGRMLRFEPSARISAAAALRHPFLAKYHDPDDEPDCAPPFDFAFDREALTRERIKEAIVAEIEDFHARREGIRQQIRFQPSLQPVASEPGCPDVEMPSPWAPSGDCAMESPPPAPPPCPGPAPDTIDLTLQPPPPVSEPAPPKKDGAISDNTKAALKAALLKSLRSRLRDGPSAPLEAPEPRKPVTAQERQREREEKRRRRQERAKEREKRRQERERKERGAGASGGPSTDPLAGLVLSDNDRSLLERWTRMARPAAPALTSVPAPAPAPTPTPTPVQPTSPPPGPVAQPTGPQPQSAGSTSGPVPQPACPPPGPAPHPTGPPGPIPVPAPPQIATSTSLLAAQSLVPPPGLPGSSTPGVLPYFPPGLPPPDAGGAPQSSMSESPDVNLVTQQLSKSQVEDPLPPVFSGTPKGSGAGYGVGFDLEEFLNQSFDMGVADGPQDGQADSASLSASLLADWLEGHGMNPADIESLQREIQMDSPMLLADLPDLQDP
# T5 sequence (Q07912 whole entry): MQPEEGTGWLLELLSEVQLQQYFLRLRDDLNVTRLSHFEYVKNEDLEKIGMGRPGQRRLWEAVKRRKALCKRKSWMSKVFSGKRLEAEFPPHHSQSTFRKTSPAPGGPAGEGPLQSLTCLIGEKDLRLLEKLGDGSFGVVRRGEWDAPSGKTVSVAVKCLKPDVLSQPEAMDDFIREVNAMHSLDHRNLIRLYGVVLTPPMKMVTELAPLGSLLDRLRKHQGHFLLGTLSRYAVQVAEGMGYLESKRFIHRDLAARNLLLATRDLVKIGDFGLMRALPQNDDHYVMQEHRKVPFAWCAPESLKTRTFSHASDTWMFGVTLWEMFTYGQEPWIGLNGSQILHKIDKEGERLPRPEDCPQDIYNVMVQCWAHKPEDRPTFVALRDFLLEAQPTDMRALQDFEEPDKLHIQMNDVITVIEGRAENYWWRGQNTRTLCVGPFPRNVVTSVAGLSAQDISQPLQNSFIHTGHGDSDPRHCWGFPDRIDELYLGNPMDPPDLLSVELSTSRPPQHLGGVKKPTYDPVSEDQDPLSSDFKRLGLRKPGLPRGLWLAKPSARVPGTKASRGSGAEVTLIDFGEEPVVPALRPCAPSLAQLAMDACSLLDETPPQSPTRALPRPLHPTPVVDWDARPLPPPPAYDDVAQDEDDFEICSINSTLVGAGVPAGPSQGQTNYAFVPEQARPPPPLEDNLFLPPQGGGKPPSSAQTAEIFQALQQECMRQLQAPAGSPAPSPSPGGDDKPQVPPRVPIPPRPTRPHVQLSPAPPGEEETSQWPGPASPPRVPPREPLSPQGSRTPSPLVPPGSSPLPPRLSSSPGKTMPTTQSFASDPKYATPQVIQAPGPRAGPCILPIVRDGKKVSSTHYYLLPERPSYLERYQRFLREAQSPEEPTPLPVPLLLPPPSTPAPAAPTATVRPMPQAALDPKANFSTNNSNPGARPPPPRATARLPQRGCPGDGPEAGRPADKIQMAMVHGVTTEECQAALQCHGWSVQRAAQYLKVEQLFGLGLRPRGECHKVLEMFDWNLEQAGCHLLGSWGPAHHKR
# T2 sequence (P23458 whole entry): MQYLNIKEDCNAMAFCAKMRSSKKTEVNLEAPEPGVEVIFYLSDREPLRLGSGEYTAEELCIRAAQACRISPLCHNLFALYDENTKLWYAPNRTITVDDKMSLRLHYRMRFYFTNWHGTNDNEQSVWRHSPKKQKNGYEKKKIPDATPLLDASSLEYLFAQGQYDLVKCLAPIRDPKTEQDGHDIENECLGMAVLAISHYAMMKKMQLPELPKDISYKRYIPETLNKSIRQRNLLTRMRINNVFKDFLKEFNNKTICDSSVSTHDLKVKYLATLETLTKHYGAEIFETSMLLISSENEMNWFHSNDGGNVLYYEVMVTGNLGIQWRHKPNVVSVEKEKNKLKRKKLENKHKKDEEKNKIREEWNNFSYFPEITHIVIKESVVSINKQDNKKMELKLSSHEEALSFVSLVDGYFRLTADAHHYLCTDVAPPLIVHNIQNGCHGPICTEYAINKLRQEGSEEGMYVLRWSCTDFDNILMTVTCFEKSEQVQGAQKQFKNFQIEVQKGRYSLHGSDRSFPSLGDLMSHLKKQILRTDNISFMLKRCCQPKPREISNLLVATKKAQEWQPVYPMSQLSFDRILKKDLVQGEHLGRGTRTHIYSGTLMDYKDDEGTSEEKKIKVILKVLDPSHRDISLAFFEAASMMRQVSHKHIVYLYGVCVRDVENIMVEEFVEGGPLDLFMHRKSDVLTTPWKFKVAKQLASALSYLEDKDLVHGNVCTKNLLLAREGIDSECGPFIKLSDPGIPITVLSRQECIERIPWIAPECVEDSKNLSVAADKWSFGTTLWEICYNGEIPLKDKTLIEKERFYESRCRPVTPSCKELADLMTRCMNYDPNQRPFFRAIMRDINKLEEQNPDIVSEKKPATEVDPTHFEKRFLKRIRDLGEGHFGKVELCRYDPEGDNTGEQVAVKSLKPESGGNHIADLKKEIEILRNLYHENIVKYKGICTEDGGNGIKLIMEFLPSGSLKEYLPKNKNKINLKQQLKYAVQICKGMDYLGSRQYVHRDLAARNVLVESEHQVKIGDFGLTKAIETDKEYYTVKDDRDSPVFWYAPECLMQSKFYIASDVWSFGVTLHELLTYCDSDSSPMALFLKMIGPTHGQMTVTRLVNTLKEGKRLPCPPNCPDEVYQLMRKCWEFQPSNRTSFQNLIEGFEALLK
SMILES,inhibition at 1 µM (AurA),inhibition at 1 µM (JAK1),AurB or AurC Inhibition % at indicated screening concentration (AurB or AurC; screening concentration 1 μM),IC50 (ERK5),inhibition at 1 µM (ERK5; [1]),ABL or ARG Inhibition % at indicated screening concentration (ABL or ARG; screening concentration 1 μM),EC50 (human PBMCs),inhibition at 1 µM (TAO2),AMPKa1 or AMPKa2 Inhibition % at indicated screening concentration (AMPKa1 or AMPKa2; screening concentration 1 μM),inhibition at 1 µM (ACK),inhibition at 10 µM (AurA; screening concentration 10 μM),inhibition at 10 µM (JAK1; screening concentration 10 μM),AurB or AurC Inhibition % at indicated screening concentration (AurB or AurC; screening concentration 10 μM),"inhibition at 10 µM (ERK5; screening concentration 10 μM, read-out: ERK5 Inhibition % at indicated screening concentration)",ABL or ARG Inhibition % at indicated screening concentration (ABL or ARG; screening concentration 10 μM),inhibition at 10 µM (TAO2; screening concentration 10 μM),AMPKa1 or AMPKa2 Inhibition % at indicated screening concentration (AMPKa1 or AMPKa2; screening concentration 10 μM),inhibition at 10 µM (ACK; screening concentration 10 μM)
CC(=O)N1CCN(C(=O)c2ccc(Nc3cc4c(cn3)N(C)C(=O)c3ccccc3N4C)c(F)c2)CC1 [Compound T71],≤ 35%,≤ 35%,E (E is ≦35%),≤ 0.05 µM,> 90%,E (E is ≦35%),4.2 µM,≤ 35%,E (E is ≦35%),≤ 35%,,,,,,,,
CN1C(=O)c2ccccc2N(C)c2cc(Nc3ccc(C(=O)N4CCN(S(C)(=O)=O)CC4)cc3F)ncc21 [Compound T72],≤ 35%,≤ 35%,D (D is >35% to ≦50%),≤ 0.05 µM,> 90%,E (E is ≦35%),4.25 µM,≤ 35%,E (E is ≦35%),≤ 35%,,,,,,,,
CCOc1cc(C(=O)N2CCN(C(C)=O)CC2)ccc1Nc1cc2c(cn1)N(C)C(=O)c1scnc1N2C [Compound T73],≤ 35%,≤ 35%,E (E is ≦35%),> 0.5 µM,35 to 50%,E (E is ≦35%),> 10 µM,≤ 35%,E (E is ≦35%),≤ 35%,,,,,,,,
CCOc1cc(C(=O)N2CC[C@@H](N3CCN(C)CC3)C2)ccc1Nc1cc2c(cn1)N(C)C(=O)c1scnc1N2C [Compound T74],≤ 35%,≤ 35%,E (E is ≦35%),> 0.5 µM,50 to 75%,E (E is ≦35%),4.82 µM,≤ 35%,E (E is ≦35%),≤ 35%,,,,,,,,
CN1CCN([C@@H]2CCN(C(=O)c3ccc(Nc4cc5c(cn4)N(C)C(=O)c4ccccc4N5C)c(OC(F)F)c3)C2)CC1 [Compound T75],≤ 35%,≤ 35%,E (E is ≦35%),≤ 0.05 µM,> 90%,E (E is ≦35%),1.55 ± 1.11 µM,≤ 35%,E (E is ≦35%),≤ 35%,,,,,,,,
[2H]C([2H])([2H])N1C(=O)c2ccccc2N(C([2H])([2H])[2H])c2cc(Nc3ccc(C(=O)N4CCN(C(C)=O)CC4)cc3OCC)ncc21 [Compound T77],≤ 35%,≤ 35%,E (E is ≦35%),0.05 to 0.1 µM,> 90%,E (E is ≦35%),6.33 µM,≤ 35%,E (E is ≦35%),≤ 35%,,,,,,,,
CCOc1cc(C(=O)N2CCN(C3CCN(C)CC3)CC2)ccc1Nc1cc2c(cn1)N(C)C(=O)c1ccccc1N2C1CC1 [Compound T79],≤ 35%,≤ 35%,E (E is ≦35%),≤ 0.05 µM,> 90%,E (E is ≦35%),7.2 µM,≤ 35%,E (E is ≦35%),≤ 35%,,,,,,,,
CCOc1cc(C(=O)N2CCN(C3CCN(C)CC3)CC2)ccc1Nc1cc2c(cn1)N(C)C(=N)c1ccccc1N2C [Compound T80],,,,> 0.5 µM,,,> 15 µM,,,,≤ 35%,≤ 35%,E (E is ≦35%),≤ 35%,E (E is ≦35%),≤ 35%,E (E is ≦35%),≤ 35%
